Source: PMC3582038 (Bioorganic & medicinal chemistry, 2012)
Converted amounts (≈) assume the structure as drawn. Marks after values point to notes of the source that are not given here.

Assays:
[1] = In vivo pharmacokinetics in rats; settings: for toxicity in both administration modes: IV 10 mg/kg and PO 100 mg/kg; for unbound peak plasma concentration as multiple of the MIC: peak plasma concentration converted to unbound; for half-life: male, Sprague-Dawley, rat, plasma, iv, 10 mg/kg; for fe (fraction of dose excreted unchanged in urine): mean (SD)
[2] = tested on: E. coli K12 ΔtolC; format: cell-based; settings: efflux pump deficient
[3] = tested on: M. tuberculosis; assay: Antituberculosis MIC, microbroth dilution; format: cell-based; settings: M. tuberculosis MIC relative to compound 11
[4] = tested on: Strep. pyogenes ATCC 700294; assay: Antibacterial spectrum MIC, S. pyogenes; format: cell-based; settings: Streptococcus pyogenes, ATCC700294, read-out: MIC S. pyogenes
[5] = rats, based on a 10 mg/kg IV dose; ref [21],[22] (Linezolid), [23],[24] (Ofloxacin); cited from earlier work

Row | SMILES | toxicity in both administration modes ([1]; rats) | unbound peak plasma concentration as multiple of the MIC ([1]; rats, IV 10 mg/kg) | MIC E. coli ΔtolC [2] | also measured
1 | O=[N+]([O-])c1ccc(C2=NOC(c3ccc(N4CCCCC4)cc3)C2)o1 (stereo not shown) [Compound 1] | non-toxic | 4.6 times the MIC |  | 
2 | O=[N+]([O-])c1ccc(C2=NOC(c3ccc(N4CCOCC4)cc3)C2)o1 (stereo not shown) [Compound 6, 4-(4-(3-(5-Nitrofuran-2-yl)-4,5-dihydroisoxazol-5-yl)phenyl)morpholine] | non-toxic | 5.0 times the MIC |  | 
3 | O=[N+]([O-])c1ccc(C2=NOC(c3ccc(N4CCOCC4)nc3)C2)o1 (stereo not shown) [Compound 7, 4-(5-(3-(5-Nitrofuran-2-yl)-4,5-dihydroisoxazol-5-yl)pyridin-2-yl)morpholine] | non-toxic | 9.8 times the MIC | 6.25 µg/mL (≈ 18.2 µM) | half-life [1]: 36.6 to 43.2 min; fe (fraction of dose excreted unchanged in urine) ([1]; rats): 0.021 (0.01) %
4 | O=[N+]([O-])c1ccc(C2=NOC(c3ccc(N4CCOCC4)c(F)c3)C2)o1 (stereo not shown) [Compound 8, 4-(2-Fluoro-4-(3-(5-nitrofuran-2-yl)-4,5-dihydroisoxazol-5-yl)phenyl)morpholine] |  |  | 6.25 µg/mL (≈ 17.3 µM) | 
5 | O=[N+]([O-])c1ccc(C2=NOC(c3ccc(N4CC[S+]([O-])CC4)cc3)C2)o1 (stereo not shown) [Compound 12, 4-(4-(3-(5-nitrofuran-2-yl)-4,5-dihydroisoxazol-5-yl)phenyl)thiomorpholine 1-oxide] |  |  |  | fold weaker MIC value than 11 [3]: 8 fold
6 | CN1CCN(c2ccc(C3CC(c4ccc([N+](=O)[O-])o4)=NO3)cc2)C(=O)C1 (stereo not shown) [Compound 15, 4-methyl-1-(4-(3-(5-nitrofuran-2-yl)-4,5-dihydroisoxazol-5-yl)phenyl)piperazin-2-one] |  | 0.71 times the MIC |  | half-life [1]: 36.6 to 43.2 min; toxicity observed after IV dosing ([1]; rats, IV 10 mg/kg): seizures and death in one animal; deaths after oral administration ([1]; rats, PO 100 mg/kg): No animals died; fe (fraction of dose excreted unchanged in urine) ([1]; rats): 0.68 (0.44) %
7 | CN1CCN(c2ccc(C3CC(c4ccc([N+](=O)[O-])o4)=NO3)cn2)C(=O)C1 (stereo not shown) [Compound 16, 4-methyl-1-(5-(3-(5-nitrofuran-2-yl)-4,5-dihydroisoxazol-5-yl)pyridin-2-yl)piperazin-2-one] |  |  | 6.25 µg/mL (≈ 16.8 µM) | 
8 | O=C1COCCN1c1ccc(C2CC(c3ccc([N+](=O)[O-])o3)=NO2)cn1 (stereo not shown) [Compound 19, 4-(5-(3-(5-nitrofuran-2-yl)-4,5-dihydroisoxazol-5-yl)pyridin-2-yl)morpholin-3-one] |  |  |  | MIC [4]: 1000 µg/mL (≈ 2800 µM)
9 | CC1COc2c(N3CCN(C)CC3)c(F)cc3c(=O)c(C(=O)O)cn1c23 (stereo not shown) [Ofloxacin] |  |  |  | AUCo0-∞ [5]: 6.1–11.8 ^* hr mg/L
